Measured values as given in patent US5250679A, “Nonpeptidyl platelet aggregation inhibitors having specificity for the GPIIb III receptor” (Genentech, Inc., priority 1992, dated 1993).

Assays:
[1] = target: T1, Human Vitronectin receptor (av b3) (Homo sapiens, UniProt P05106+P06756); assay: Human Vitronectin-Vitronectin Receptor (av b3) ELISA Assay (Vn/VnR); type: binding; settings: Example 30, G # table
T1 construct: is purified from human placenta; from tissue; host or cells: human placenta
Excerpt: Human vitronectin (Vn) is isolated from human plasma and purified by affinity chromatography by the method of Yatohgo et. al., (Cell Structure and Function 13: 281-292 [1988]).
Human vitronection receptor (VnR) is purified from human placenta by the method of Pytela et al., (Methods Enzymol., 144: 475 [1987]). Alternatively the av b3 receptor can be purified from some cell lines (e.g., human embryonic kidney 293 cells) transfected with DNA sequences for both the av and b3 subunits. The subunits are purified by employing octylglucoside extraction followed by Con-A, Heparin-Sepharose, and S-300 Chromatography.
This mouse Mab is specific for the b3 subunit of the vitronectin receptor.
Rabbit Fab 2 anti-mouse Fc fragment horse radish peroxidase conjugate (anti-MuFc HRP) is obtained from PelFreeze (cat. no. 715305-1).
Maxisorp microtiter plates are coated with 2 mg/ml human vitronectin dissolved in PBS (50 ml/well) and stored overnight at 4° C. The plates are washed two times with PBS-0.05% Tween-20 (wash buffer) and blocked by incubating with about 150 ml/well of assay buffer (1%, BSA [RIA grade or better] in 50 mM Tris-HCl, 100 mM NaCl, 1 mM MgCl2, CaCl2, MnCl2 pH 7.4) for 60 minutes. […] The blocked plates are emptied and 25 ml/well of inhibitor or standard solution is added to each well. Twenty-five ml of a 30 mg/ml solution of purified av b3 in assay buffer is pipetted into the coated plate. The final concentration of receptor in the assay well is about 15 mg/ml. The plate is incubated on a shaker for 60 minutes. Meanwhile, for each microtite plate, 6 ml buffer solution containing 1.5 mg/ml of mouse monoclonal antibody specific for b3 is prepared. To this solution is added ml of the secondary antibody, which is anti-mouse-Fc-HRP antibody conjugate. For example, for one plate, prepare 6 ml of a 1.5 mg/ml mouse Mab solution to which is added 1 ml of anti-mouse-Fc-HRP antibody stock, (this represents a 1:6000 dilution of the antibody-HRP conjugate). This mixture is allowed to incubate during the receptor-inhibitor incubation. The assay plates are washed 4 times with PBS-Tween and 50 ml/well of the antibody mixture is then pipetted into the plate for a 60 minute incubation. The plate is washed 4 times and the color reaction is developed with 50 ml/well of 0.67 mg/ml o-phenyldiamine in PBS containing 0.012% H2 O2. Alternatively, 16 mM citric acid, 50 mM Na2 PO4 at pH 5.0 can be used as a substrate buffer. The reaction is stopped with 50 ml/well 1 M H2 SO4. The plates are read at 492-405 nm and the data analyzed by four-parameter fit.

GP IIb IIIa [2] = target: T2, GP IIb IIIa (Homo sapiens, UniProt P05106+P08514); assay: Fibrinogen-GP IIb IIIa Receptor ELISA Binding Assay (Fg/IIbIIIa)
T2 construct: from tissue; host or cells: outdated human platelets
Summary of the method: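 Purified human platelet GP IIb IIIa binding to immobilised purified fibrinogen was run with compound at room temperature for 1 h. IC50 values were determined.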

GP IIb IIIa [3] = target: T2, GP IIb IIIa; assay: GP IIb IIIa -von Willebrand factor (vWF) ELISA Assay (vWF/IIbIIIa); type: binding; settings: Example 30, G # table
Protocol: Microtiter plates are coated with 1.0 mg/ml GP IIb IIIa, prepared by the method of Fitzgerald et al., (Anal. Biochem. 151: 169-177 [1985]) and allowed to incubate overnight in coat buffer. The plates are then washed three times in wash buffer (0.05% Tween 20 in PBS) and 150 ml of assay buffer is added and allowed to incubate for 1-2 hours at room temperature on plate shaker. […] Fifty ml of 4.0 mg/ml vWF (prepared as described by Ledford et al., Thrombosis and Haemostasis, 64(4): 569-575 ]1990]) in assay buffer is then added and allowed to incubate for one hour at room temperature on plate-shaker. The plates are washed three times and the antibody mixture is added (1:5000 of mouse anti-vWF and 1:5000 of rabbit-anti-mouse-Fc-HRP, both commercially available) in assay buffer and incubated for 1 hour at room temperature on plate-shaker. […] The color change of OPD/H2 O2 reagent is read at 492 nm with a 405 nm reference wavelength on the filter photometer.

[4] = tested on: human platelet rich plasma (PRP); assay: In Vitro Human Platelet Aggregation Assay (PA); type: cell-based; settings: Homo sapiens, Platelet, citrate; read-out: PA IC50 (μM) (citrate)
Protocol: In addition to the GPIIb IIIa ELISA assay, platelet aggregation assays may be performed in human platelet rich plasma (PRP). […] The blood is centrifuged at 160×g for 10 min at 22° C. and then allowed to stand for 5 min after which the PRP is decanted. Platelet poor plasma (PPP) is isolated from the remaining blood after centrifugation at 2000×g for 25 min. The platelet count of the PRP is adjusted to ca. 300,000 per microliter with PPP.
A 225 mL aliquot of PRP plus 25 mL of either a dilution of the test sample or a control (PBS) is incubated for 5 min in a Chrono-log Whole Blood Aggregometer at 25° C. An aggregating agent (collagen, 1 mg/ml; U46619, 100 ng/ml; or ADP, 8 mM) is added and the platelet aggregation recorded.
Platelet aggregation assays are performed in human platelet rich plasma (PRP). […] The blood is centrifuged at 160×g for 10 minutes at 22° C. and allowed to stand for 5 minutes after which the PRP is decanted. Platelet poor plasma (PPP) is isolated from the remaining blood after centrifugation at 2000×g for 25 minutes. The platelet count of the PRP is diluted to about 300,000 platelets per microliter with PPP.
A 225 ml aliquot of PRP plus 25 ml of either a dilution of the test inhibitor sample or a control (PBS) is incubated for 5 minutes in a Chrono-log Whole Blood Aggregometer at 25° C. An aggregating agent (collagen, 1 mg/ml; U46619, 100 ng/ml; or ADP, 17 mM) is added and the transmission is recorded.

[5] = Example 29, Cmpd # 1-105, read-out: IC50 Fg/IIbI
[6] = Example 30, G # table, read-out: IC50 (μM) Fg/IIbIIIa

T2 sequence (P08514 32-887 limits assumed): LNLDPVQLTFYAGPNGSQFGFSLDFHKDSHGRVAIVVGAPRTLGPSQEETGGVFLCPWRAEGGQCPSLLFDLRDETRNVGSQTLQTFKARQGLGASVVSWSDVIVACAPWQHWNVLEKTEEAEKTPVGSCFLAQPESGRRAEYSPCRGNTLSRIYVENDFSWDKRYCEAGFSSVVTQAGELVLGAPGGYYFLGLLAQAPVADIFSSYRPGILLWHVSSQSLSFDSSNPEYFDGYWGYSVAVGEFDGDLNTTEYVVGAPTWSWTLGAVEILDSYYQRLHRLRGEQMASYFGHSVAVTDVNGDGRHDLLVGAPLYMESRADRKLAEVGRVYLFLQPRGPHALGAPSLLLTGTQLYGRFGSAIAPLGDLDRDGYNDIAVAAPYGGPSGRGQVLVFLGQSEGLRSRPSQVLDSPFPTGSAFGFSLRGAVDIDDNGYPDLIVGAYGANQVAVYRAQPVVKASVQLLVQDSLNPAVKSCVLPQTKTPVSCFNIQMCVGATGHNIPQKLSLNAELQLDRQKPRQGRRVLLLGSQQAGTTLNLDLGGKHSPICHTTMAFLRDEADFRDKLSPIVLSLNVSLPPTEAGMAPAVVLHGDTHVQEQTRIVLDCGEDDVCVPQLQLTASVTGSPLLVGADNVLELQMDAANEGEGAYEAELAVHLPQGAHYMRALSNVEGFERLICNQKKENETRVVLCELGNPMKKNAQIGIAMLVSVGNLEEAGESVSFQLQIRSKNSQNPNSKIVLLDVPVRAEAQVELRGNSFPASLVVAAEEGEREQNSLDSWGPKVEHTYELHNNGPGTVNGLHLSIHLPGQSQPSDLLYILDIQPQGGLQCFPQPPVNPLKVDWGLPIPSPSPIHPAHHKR
T2 sequence (P08514 891-1039 partner limits assumed): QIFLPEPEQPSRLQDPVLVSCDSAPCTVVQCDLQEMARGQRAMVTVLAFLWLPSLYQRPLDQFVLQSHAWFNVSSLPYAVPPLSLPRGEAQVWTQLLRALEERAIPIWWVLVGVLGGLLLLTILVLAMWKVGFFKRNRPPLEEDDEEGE
T2 sequence (P05106 27-788): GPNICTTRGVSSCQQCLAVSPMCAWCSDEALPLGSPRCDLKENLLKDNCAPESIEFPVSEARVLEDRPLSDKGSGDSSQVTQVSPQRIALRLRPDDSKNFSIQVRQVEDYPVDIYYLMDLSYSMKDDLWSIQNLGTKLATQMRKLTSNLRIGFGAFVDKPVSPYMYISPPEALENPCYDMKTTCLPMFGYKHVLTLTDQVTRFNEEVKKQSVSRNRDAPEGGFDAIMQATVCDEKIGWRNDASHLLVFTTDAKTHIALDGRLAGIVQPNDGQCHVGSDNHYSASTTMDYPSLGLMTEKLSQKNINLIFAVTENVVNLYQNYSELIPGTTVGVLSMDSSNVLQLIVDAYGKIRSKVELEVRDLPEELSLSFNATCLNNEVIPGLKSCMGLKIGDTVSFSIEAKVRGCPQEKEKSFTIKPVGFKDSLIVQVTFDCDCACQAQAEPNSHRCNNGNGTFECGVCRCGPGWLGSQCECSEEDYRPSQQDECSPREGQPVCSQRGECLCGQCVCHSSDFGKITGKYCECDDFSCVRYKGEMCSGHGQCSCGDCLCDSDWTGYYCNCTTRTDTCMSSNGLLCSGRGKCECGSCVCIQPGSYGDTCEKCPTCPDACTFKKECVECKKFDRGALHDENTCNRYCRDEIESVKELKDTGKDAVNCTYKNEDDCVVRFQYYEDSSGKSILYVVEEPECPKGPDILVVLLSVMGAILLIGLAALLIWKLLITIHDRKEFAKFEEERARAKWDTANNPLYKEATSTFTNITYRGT
T1 sequence (P06756 31-889 limits assumed): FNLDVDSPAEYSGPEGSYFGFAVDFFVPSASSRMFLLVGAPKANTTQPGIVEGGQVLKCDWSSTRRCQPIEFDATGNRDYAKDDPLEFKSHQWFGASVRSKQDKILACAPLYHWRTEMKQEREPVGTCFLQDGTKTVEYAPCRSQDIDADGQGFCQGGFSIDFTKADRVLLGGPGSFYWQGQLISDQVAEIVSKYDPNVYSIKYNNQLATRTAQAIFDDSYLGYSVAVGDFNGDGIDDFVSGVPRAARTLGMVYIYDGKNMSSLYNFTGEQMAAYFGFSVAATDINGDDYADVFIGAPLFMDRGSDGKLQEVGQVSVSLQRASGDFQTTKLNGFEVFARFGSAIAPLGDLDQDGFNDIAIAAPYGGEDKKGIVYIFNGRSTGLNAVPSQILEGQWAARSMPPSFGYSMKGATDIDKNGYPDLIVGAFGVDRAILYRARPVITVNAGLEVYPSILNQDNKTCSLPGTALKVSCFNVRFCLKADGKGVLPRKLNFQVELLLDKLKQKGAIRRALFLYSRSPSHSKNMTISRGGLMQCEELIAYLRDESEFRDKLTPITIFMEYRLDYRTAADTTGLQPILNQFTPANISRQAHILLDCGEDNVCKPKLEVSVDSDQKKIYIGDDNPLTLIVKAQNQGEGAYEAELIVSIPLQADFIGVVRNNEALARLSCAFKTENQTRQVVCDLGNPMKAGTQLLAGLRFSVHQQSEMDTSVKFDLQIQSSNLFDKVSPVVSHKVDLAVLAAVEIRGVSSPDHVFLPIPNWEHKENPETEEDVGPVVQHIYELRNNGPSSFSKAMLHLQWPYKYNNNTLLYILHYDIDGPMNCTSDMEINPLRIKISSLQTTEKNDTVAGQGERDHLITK
T1 sequence (P06756 891-1048 partner limits assumed): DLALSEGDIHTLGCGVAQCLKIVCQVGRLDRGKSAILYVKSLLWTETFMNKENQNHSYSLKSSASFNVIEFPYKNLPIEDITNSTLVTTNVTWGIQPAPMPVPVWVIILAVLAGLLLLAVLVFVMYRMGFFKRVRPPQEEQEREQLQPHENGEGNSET
T1 sequence (P05106 27-788): as the sequence (P05106 27-788) above

Structure (SMILES)	IC50 [1]	IC50 (GP IIb IIIa [2]; [5])	IC50 (GP IIb IIIa [2]; [6])	IC50 (GP IIb IIIa [3])	IC50 [4]
CN1C(=O)CN(CCC(=O)O)C(=O)c2cc(CCCCNC(=N)N)ccc21 [Cmpd 20]	> 10 µM	0.25 µM	0.245 µM	0.096 µM	
CN1C(=O)CN(CCC(=O)O)C(=O)c2cc(CCCCCN)ccc21 [Cmpd 27, 1-methyl-4-(2-carboxyethyl)-7-(5-amino-1-pentyl)-3,4-dihydro-1H-1,4-benzodiazepine-2,5-dione trifluroacetate]	> 10 µM	1.9 µM	1.9 µM	0.78 µM	
CN1C(=O)CN(CCC(=O)O)C(=O)c2cc(CCCCCNC(=N)N)ccc21 [Cmpd 28, 1-methyl-4-(2-carboxyethyl)-7-(5-guanidino-1-pentyl)-3,4-dihydro-1H-1,4-benzodiazepine-2,5-dione trifluroacetate]	> 10 µM	0.055 µM	0.055 µM	0.024 µM	
CN1C(=O)CN(CCC(=O)O)C(=O)c2cc(C#CCCCN)ccc21 [Cmpd 33, 1-methyl-4-(2-carboxyethyl)-7-(5-amino-1-pentynyl)-3,4-dihydro-1H-1,4-benzodiazepine-2,5-dione trifluroacetate]	> 10 µM	0.096 µM	0.096 µM	0.39 µM	85.5 µM
N=C(N)NCCCC#Cc1ccc2c(c1)C(=O)N(CCC(=O)O)CC(=O)N2Cc1cccc([N+](=O)[O-])c1 [Cmpd 36, 1-(3-nitrobenzyl)-4-(2-carboxyethyl)-7-(5-guanidino-1-pentynyl)-3,4-dihydro-1H-1,4-benzodiazepine-2,5-dione trifluroacetate]	3 µM	0.0032 µM	0.0032 µM	0.0004 µM	0.94 µM
